In EP3375430A1, “FRAGRANCE COMPOSITIONS” (Takasago International Corporation, priority 2017, dated 2018):
Values belong to the compound of their own block, whether it stands above or below them.

Assays:
[1] = Amount of fragrance ingredients retained on paper blotter after evaporation (ethanol extraction, GC-MS); format: physicochemical
Outline: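 100 µL of fragrance formulation applied to paper blotters kept at 32°C open to air; at each time three blotters extracted 1 h in ethanol with methyl decanoate internal standard and analysed by GC-MS (HP-5MS, 50–280°C). Amounts averaged over triplicates and expressed as percent of time-zero level.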

[2] = Headspace concentration of fragrance ingredients over blotter (thermal desorption GC-MS); format: physicochemical; details: for headspace concentration in composition C1 compared to control EdT1 / headspace concentration in composition C14 compared to control EdT1 / headspace concentration in composition C15 compared to control EdT1: fragrance TAK; for headspace concentration in composition C14 compared to control EdT1 / headspace concentration in composition C15 compared to control EdT1: T0+4h and T0+8h; for headspace concentration in composition C14 compared to control EdT1: Figures 17 and 18; for headspace concentration in composition C15 compared to control EdT1: Figures 20 and 21, difference significant for linalool, linalyl acetate and Verdox™;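 on headspace concentration in composition C1 compared to control EdT1: C1 is an invention composition and EdT1 a conventional EdT of fragrance TAK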
Outline: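 Fragrance (100µL) applied to a 10 cm perfumers' blotter held on a 32°C hot plate, equilibrated 5 min; headspace drawn through Tenax TA tubes at 17mL/min until 280mL collected, repeated at later sampling times. Tubes thermally desorbed splitless onto HP-5MS column, GC-MS detection, mass range 35 to 350.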

[3] = Table 3, fragrance TAK in C1, 15 min, 32°C
[4] = Table 3, fragrance TAK in C1, 60 min, 32°C
[5] = Table 3, fragrance TAK in C1, 120 min, 32°C
[6] = Table 3, fragrance TAK in C1, 240 min, 32°C
[7] = Table 3, fragrance TAK in C1, 480 min, 32°C
[8] = Table 3, fragrance TAK in EdT1, 15 min, 32°C
[9] = Table 3, fragrance TAK in EdT1, 60 min, 32°C
[10] = Table 3, fragrance TAK in EdT1, 120 min, 32°C
[11] = Table 3, fragrance TAK in EdT1, 240 min, 32°C
[12] = Table 3, fragrance TAK in EdT1, 480 min, 32°C
[13] = Table 3, fragrance TAK in EdT1 or C1, T0, set at 100% (normalisation)
[14] = Table 4, fragrance TAK in C2, 15 min, 32°C
[15] = Table 4, fragrance TAK in C2, 480 min, 32°C
[16] = Table 4, fragrance TAK in EdT1, 15 min, 32°C
[17] = Table 4, fragrance TAK in EdT1, 480 min, 32°C
[18] = Table 4, fragrance TAK in EdT1 or C2, T0, set at 100% (normalisation)
[19] = Table 5, fragrance TAK in C3, 15 min, 32°C
[20] = Table 5, fragrance TAK in C3, 60 min, 32°C
[21] = Table 5, fragrance TAK in C3, 120 min, 32°C
[22] = Table 5, fragrance TAK in C3, 240 min, 32°C
[23] = Table 5, fragrance TAK in C3, 480 min, 32°C
[24] = Table 5, fragrance TAK in C3, 1440 min, 32°C
[25] = Table 5, fragrance TAK in EdT1, 15 min, 32°C
[26] = Table 5, fragrance TAK in EdT1, 60 min, 32°C
[27] = Table 5, fragrance TAK in EdT1, 120 min, 32°C
[28] = Table 5, fragrance TAK in EdT1, 240 min, 32°C
[29] = Table 5, fragrance TAK in EdT1, 480 min, 32°C
[30] = Table 5, fragrance TAK in EdT1, 1440 min, 32°C
[31] = Table 5, fragrance TAK in EdT1 or C3, T0, set at 100% (normalisation)
[32] = Table 6, fragrance TAK in C4, 15 min, 32°C
[33] = Table 6, fragrance TAK in C4, 60 min, 32°C
[34] = Table 6, fragrance TAK in C4, 120 min, 32°C
[35] = Table 6, fragrance TAK in C4, 240 min, 32°C
[36] = Table 6, fragrance TAK in C4, 480 min, 32°C
[37] = Table 6, fragrance TAK in EdT1, 15 min, 32°C
[38] = Table 6, fragrance TAK in EdT1, 60 min, 32°C
[39] = Table 6, fragrance TAK in EdT1, 120 min, 32°C
[40] = Table 6, fragrance TAK in EdT1, 240 min, 32°C
[41] = Table 6, fragrance TAK in EdT1, 480 min, 32°C
[42] = Table 6, fragrance TAK in EdT1 or C4, T0, set at 100% (normalisation)

SMILES: C=CC(C)(CCC=C(C)C)OC(C)=O (centres unmarked) [Linalyl acetate]
amount of fragrance ingredient retained on blotter (percentage of the initial amount) [1, 3]: 79%
amount of fragrance ingredient retained on blotter (percentage of the initial amount) [1, 4]: 62%
amount of fragrance ingredient retained on blotter (percentage of the initial amount) [1, 5]: 39%
amount of fragrance ingredient retained on blotter (percentage of the initial amount) [1, 6]: 19%
amount of fragrance ingredient retained on blotter (percentage of the initial amount) [1, 7]: 7%
amount of fragrance ingredient retained on blotter (percentage of the initial amount) [1, 8]: 70%
amount of fragrance ingredient retained on blotter (percentage of the initial amount) [1, 9]: 27%
amount of fragrance ingredient retained on blotter (percentage of the initial amount) [1, 10]: 6%
amount of fragrance ingredient retained on blotter (percentage of the initial amount) [1, 11]: 2%
amount of fragrance ingredient retained on blotter (percentage of the initial amount) [1, 12]: <1%
amount of fragrance ingredient retained on blotter (percentage of the initial amount) [1, 13]: 100%
amount of fragrance ingredient retained on blotter (percentage of the initial amount) [1, 14]: 92%
amount of fragrance ingredient retained on blotter (percentage of the initial amount) [1, 15]: 9%
amount of fragrance ingredient retained on blotter (percentage of the initial amount) [1, 16]: 72%
amount of fragrance ingredient retained on blotter (percentage of the initial amount) [1, 17]: 2%
amount of fragrance ingredient retained on blotter (percentage of the initial amount) [1, 18]: 100%
amount of fragrance ingredient retained on blotter (percentage of the initial amount) [1, 19]: 83%
amount of fragrance ingredient retained on blotter (percentage of the initial amount) [1, 20]: 62%
amount of fragrance ingredient retained on blotter (percentage of the initial amount) [1, 21]: 41%
amount of fragrance ingredient retained on blotter (percentage of the initial amount) [1, 22]: 24%
amount of fragrance ingredient retained on blotter (percentage of the initial amount) [1, 23]: 8%
amount of fragrance ingredient retained on blotter (percentage of the initial amount) [1, 24]: 3%
amount of fragrance ingredient retained on blotter (percentage of the initial amount) [1, 25]: 70%
amount of fragrance ingredient retained on blotter (percentage of the initial amount) [1, 26]: 26%
amount of fragrance ingredient retained on blotter (percentage of the initial amount) [1, 27]: 6%
amount of fragrance ingredient retained on blotter (percentage of the initial amount) [1, 28]: 2%
amount of fragrance ingredient retained on blotter (percentage of the initial amount) [1, 29]: <1%
amount of fragrance ingredient retained on blotter (percentage of the initial amount) [1, 30]: <1%
amount of fragrance ingredient retained on blotter (percentage of the initial amount) [1, 31]: 100%
amount of fragrance ingredient retained on blotter (percentage of the initial amount) [1, 32]: 82%
amount of fragrance ingredient retained on blotter (percentage of the initial amount) [1, 33]: 62%
amount of fragrance ingredient retained on blotter (percentage of the initial amount) [1, 34]: 34%
amount of fragrance ingredient retained on blotter (percentage of the initial amount) [1, 35]: 18%
amount of fragrance ingredient retained on blotter (percentage of the initial amount) [1, 36]: 10%
amount of fragrance ingredient retained on blotter (percentage of the initial amount) [1, 37]: 70%
amount of fragrance ingredient retained on blotter (percentage of the initial amount) [1, 38]: 27%
amount of fragrance ingredient retained on blotter (percentage of the initial amount) [1, 39]: 6%
amount of fragrance ingredient retained on blotter (percentage of the initial amount) [1, 40]: 2%
amount of fragrance ingredient retained on blotter (percentage of the initial amount) [1, 41]: <1%
amount of fragrance ingredient retained on blotter (percentage of the initial amount) [1, 42]: 100%
headspace concentration in composition C1 compared to control EdT1 ([2]; T0 + 4h, Figure 3): significantly greater
headspace concentration in composition C14 compared to control EdT1 [2]: significantly greater
headspace concentration in composition C15 compared to control EdT1 [2]: greater
headspace concentration in composition C1 compared to control EdT1 ([2]; T0 + 8h, Figure 4): much greater
headspace concentration in composition C1 compared to control EdT1 ([2]; after 1 hour, Figure 2): greater

amount of fragrance ingredient retained on blotter (percentage of the initial amount) [1, 3]: 80%
amount of fragrance ingredient retained on blotter (percentage of the initial amount) [1, 4]: 62%
amount of fragrance ingredient retained on blotter (percentage of the initial amount) [1, 5]: 39%
amount of fragrance ingredient retained on blotter (percentage of the initial amount) [1, 6]: 18%
amount of fragrance ingredient retained on blotter (percentage of the initial amount) [1, 7]: 2%
amount of fragrance ingredient retained on blotter (percentage of the initial amount) [1, 8]: 70%
amount of fragrance ingredient retained on blotter (percentage of the initial amount) [1, 9]: 29%
amount of fragrance ingredient retained on blotter (percentage of the initial amount) [1, 10]: 2%
amount of fragrance ingredient retained on blotter (percentage of the initial amount) [1, 11]: <1%
amount of fragrance ingredient retained on blotter (percentage of the initial amount) [1, 12]: 1%
amount of fragrance ingredient retained on blotter (percentage of the initial amount) [1, 13]: 100%
amount of fragrance ingredient retained on blotter (percentage of the initial amount) [1, 14]: 92%
amount of fragrance ingredient retained on blotter (percentage of the initial amount) [1, 15]: 3%
amount of fragrance ingredient retained on blotter (percentage of the initial amount) [1, 16]: 74%
amount of fragrance ingredient retained on blotter (percentage of the initial amount) [1, 17]: <1%
amount of fragrance ingredient retained on blotter (percentage of the initial amount) [1, 18]: 100%
amount of fragrance ingredient retained on blotter (percentage of the initial amount) [1, 19]: 83%
amount of fragrance ingredient retained on blotter (percentage of the initial amount) [1, 20]: 64%
amount of fragrance ingredient retained on blotter (percentage of the initial amount) [1, 21]: 44%
amount of fragrance ingredient retained on blotter (percentage of the initial amount) [1, 22]: 27%
amount of fragrance ingredient retained on blotter (percentage of the initial amount) [1, 23]: 3%
amount of fragrance ingredient retained on blotter (percentage of the initial amount) [1, 24]: <1%
amount of fragrance ingredient retained on blotter (percentage of the initial amount) [1, 25]: 70%
amount of fragrance ingredient retained on blotter (percentage of the initial amount) [1, 26]: 27%
amount of fragrance ingredient retained on blotter (percentage of the initial amount) [1, 27]: 2%
amount of fragrance ingredient retained on blotter (percentage of the initial amount) [1, 28]: <1%
amount of fragrance ingredient retained on blotter (percentage of the initial amount) [1, 29]: 1%
amount of fragrance ingredient retained on blotter (percentage of the initial amount) [1, 30]: <1%
amount of fragrance ingredient retained on blotter (percentage of the initial amount) [1, 31]: 100%
amount of fragrance ingredient retained on blotter (percentage of the initial amount) [1, 32]: 83%
amount of fragrance ingredient retained on blotter (percentage of the initial amount) [1, 33]: 64%
amount of fragrance ingredient retained on blotter (percentage of the initial amount) [1, 34]: 36%
amount of fragrance ingredient retained on blotter (percentage of the initial amount) [1, 35]: 18%
amount of fragrance ingredient retained on blotter (percentage of the initial amount) [1, 36]: 3%
amount of fragrance ingredient retained on blotter (percentage of the initial amount) [1, 37]: 70%
amount of fragrance ingredient retained on blotter (percentage of the initial amount) [1, 38]: 29%
amount of fragrance ingredient retained on blotter (percentage of the initial amount) [1, 39]: 2%
amount of fragrance ingredient retained on blotter (percentage of the initial amount) [1, 40]: <1%
amount of fragrance ingredient retained on blotter (percentage of the initial amount) [1, 41]: 1%
amount of fragrance ingredient retained on blotter (percentage of the initial amount) [1, 42]: 100%
amount of fragrance ingredient retained on blotter (percentage of the initial amount) ([1]; Table 9, fragrance COM1 in C5, T0 + 15 min): 75.1%
amount of fragrance ingredient retained on blotter (percentage of the initial amount) ([1]; Table 9, fragrance COM1 in C5, T0 + 480 min): 1.9%
amount of fragrance ingredient retained on blotter (percentage of the initial amount) ([1]; Table 9, fragrance COM1 in C5, T0 +1440 min): <1%
amount of fragrance ingredient retained on blotter (percentage of the initial amount) ([1]; Table 9, fragrance COM1 in C6, T0 + 15 min): 66.4%
amount of fragrance ingredient retained on blotter (percentage of the initial amount) ([1]; Table 9, fragrance COM1 in C6, T0 + 480 min): 1.7%
amount of fragrance ingredient retained on blotter (percentage of the initial amount) ([1]; Table 9, fragrance COM1 in C6, T0 +1440 min): 1.0%
amount of fragrance ingredient retained on blotter (percentage of the initial amount) ([1]; Table 9, fragrance COM1 in EdT2, C5 or C6, T0, set at 100% (normalisation)): 100%
amount of fragrance ingredient retained on blotter (percentage of the initial amount) ([1]; Table 9, fragrance COM1 in EdT2, T0 + 15 min): 61.7%
amount of fragrance ingredient retained on blotter (percentage of the initial amount) ([1]; Table 9, fragrance COM1 in EdT2, T0 + 480 min): 3.7%
amount of fragrance ingredient retained on blotter (percentage of the initial amount) ([1]; Table 9, fragrance COM1 in EdT2, T0 +1440 min): 2.90%
headspace concentration in composition C8 compared to control EdT4 ([2]; COM1 dosed at 20 wt%, up to 8 hours, Figures 8 to 10): significantly higher
headspace concentration in composition C1 compared to control EdT1 ([2]; T0 + 4h, Figure 3): significantly greater
headspace concentration in composition C14 compared to control EdT1 [2]: significantly greater
headspace concentration in composition C15 compared to control EdT1 [2]: greater
headspace concentration in composition C1 compared to control EdT1 ([2]; T0 + 8h, Figure 4): much greater
headspace concentration in composition C1 compared to control EdT1 ([2]; after 1 hour, Figure 2): greater
SMILES: CC(=O)OC1CCCCC1C(C)(C)C (centres unmarked) [Verdox™, (2-tert-butylcyclohexyl) acetate]
